Source: patent US10780094B2, “Use of carbonic anhydrase inhibitors for treatment of neurological and psychiatric disorders” (New York University, priority 2016, dated 2020)

How the values were obtained:
D3 cells [1] = test: ATP measurement (CellTiter-Glo); type: cell-based, human
Method: (§1) Steady state levels of ATP were estimated using the Cell Titter-Glo, according to manufacturer's instructions. Briefly, 5×10^3 cells per well of both D3 and SHSY cells were plated on 96-wells plates. The day after, cells were treated with either 10 μM Q22 or 50 μM Ab42 peptides, respectively. Peptides were added alone or in combination with increasing concentrations of MTZ (100 and 300 μM) or AZT (30 and 300 μM). Controls were treated with either DMSO or 5 μM oligomycin. After 3 hours of treatment, the plates containing the cells were equilibrated to room temperature for 30 minutes prior to addition of the luciferin/luciferase/cell lysis mixture. Absolute luminescence from quadruplicate experiments was recorded using a SpectraMax plate reader (Molecular Devices, Sunnyvalem Calif., US).

SH-SY5Y cells [2] = test: ATP measurement (CellTiter-Glo); type: cell-based, human; details: oligomycin 5 μM control; p<0.0001
Method: as §1

D3 cells [3] = test: Mitochondrial and cytoplasmic calcium assay (Rhod-2 AM, Fluo-4 AM); type: cell-based, human; details: Ionomycin 5 μM at the end of the experiments
Method: (§2) This assay was performed as published in [60]. Briefly, cells were plated on 25 mm optical borosilicate poly-L-lysine-coated sterile glass covers, (ThermoFisher, Waltham, Mass., US) at a 70% confluence. 24 hours later, cells were loaded with 5 μM Rhod-2 AM or 2.5 μM Fluo-4 AM on HBSS for 45 minutes. Then, cells were washed twice with HBSS and incubated for another additional 15 minutes on fresh HBSS, without Rhod-2 AM or Fluo-4 AM. After that, HBSS was replaced again by fresh HBSS, glasses were mounted on microscopy chambers and experiments were conducted, after adding the pre-aggregated peptides and/or the drugs. Cells were mounted on Sykes-Moores chambers (BellCo, Vineland, N.J., US) and imaged every 15 seconds for 45 min, at a 20× magnification, using a Nikon fluorescent microscope (Chiyoda, Tokyo, Japan). Images were processed using NIS-Elements and ImageJ software. Due to the rapidity of this experiment, the peptide was pre-aggregated as described above to obtain oligomers before being added to the cells.

SH-SY5Y cells [4] = test: as above; type: cell-based, human; details: Ionomycin 5 μM at the end of the experiments
Method: as §2

mitochondrial CA = details: reference (16); cited from earlier work
[5] = references (44, 45); cited from earlier work
[6] = test system: caspase 9 in SH-SY5Y neuronal cells; test: Caspase-Glo 9 activity after Aβ challenge; type: cell-based, human; details: 10 μM Aβ42; 24 hours; no drug
Method: (§3) Caspase 9 and caspase 3/7 activation was measured by luminescent assays (Caspase-Glo 9 and caspase-Glo 3/7, Promega, Madison, Wis.), in cells treated with the Aβ peptides in DMEM without FBS. Briefly, 10,000 cells/well were plated in 96 wells plates and incubated for 24 hours with the freshly solubilized Aβ peptides. Caspase-Glo reagent was added to the cell cultures resulting in cell lysis, followed by caspase cleavage of the substrate and generation of a luminescent signal produced by the luciferase reaction. After 40 minutes incubation, the amount of caspase activity was evaluated in a plate-reading luminometer (Synergy HT Multi-Mode Microplate Reader, Biotek, Winooski, Vt.) as described in (Fossati et al., 2012b). To inhibit non-specific background activity, the proteasome inhibitor MG-132 was added to the Caspase-Glo reagent before the experiment as indicated by the manufacturer. In all cases results are expressed as fold-change compared to untreated control cells.
Cells were plated at a confluence of 10.000 cells per well in 96-wells microplate luminescence microtiter (ThermoFisher, Waltham, Mass., US). The day after, cells were treated with the peptides and/or drugs for the experimental times. After that, caspase-Glo 9 assay was performed, following the protocol provided from the manufacturer. Luminescence was measured using a FlexStation 3 Multi-Mode Microplate Reader (Molecular devices, Sunnyvalem Calif., US).

caspase 9 in glial cells = test: Caspase-Glo 9 activity after Aβ challenge; type: cell-based, human; details: 10 μM Aβ42; 24 hours; no drug
Method: as §3

[7] = test system: D3 cerebral microvascular endothelial cells; test: TMRM assay of mitochondrial membrane potential (ΔΨ); type: cell-based, human; details: 40 μM FCCP
Method: (§4) Briefly, cells were plated on 25 mm optical borosilicate poly-L-lysine-coated sterile glass covers (ThermoFisher, Waltham, Mass., US) at a 70% confluence. The day after, cells were washed twice with HBSS and charged with 600 nM TMRM on HBSS. Cells were then incubated for 20 min in the incubator, at 37° C. and washed again with HBSS. After that, the medium was replaced by HBSS containing 150 nM of tetramethylrhodamine methyl ester (TMRM), in order to maintain the equilibrium distribution of the fluorophore. Cells were then mounted on Sykes-Moores chambers (BellCo, Vineland, N.J., US) and treated with the different drugs and/or peptides. An image was taken at minute 0 and at minute 45, after adding the drugs and/or peptides. In this experiment, the peptide was pre-aggregated as above before adding it to the cells.

SH-SY5Y neuronal cells = test: as above; type: cell-based, human; details: 40 μM FCCP
Method: as §4

In the case of CC[C@H]1/C=C/C=C/C[C@@H](C)[C@H](O)[C@@](C)(O)C(=O)[C@@H](C)[C@H](O)[C@@H](C)C(=O)[C@@H](C)[C@H](O)[C@@H](C)/C=C/C(=O)O[C@@H]2[C@H](C)[C@H](CC1)O[C@]1(CC[C@H](C)[C@H](C[C@@H](C)O)O1)[C@H]2C [oligomycin], the “increase in ATP luminescence” value (D3 cells [1]; oligomycin 5 μM, p=0.0002) is reported as 32.4% and the “decrease in ATP levels” value (SH-SY5Y cells [2]) is reported as 34%.

With C[C@H](CCC(=O)O)C[C@H](C)C[C@H](C)C(=O)/C=C(\O)[C@H](C)C[C@H](C)C/C=C/[C@@H](C)[C@@H](O)[C@@H](C)[C@@H](O)C[C@@H]1CC[C@@](C)([C@H]2CC[C@@](C)([C@@H](C)O)O2)O1 [Ionomycin] the “mitochondrial and cytoplasmic calcium levels” value (D3 cells [3]) was “increase in mitochondrial and cytoplasmic calcium levels” and the “mitochondrial and cytoplasmic calcium levels” value (SH-SY5Y cells [4]) was “increase in mitochondrial and cytoplasmic calcium levels”.

For CCOc1ccc2nc(S(N)(=O)=O)sc2c1 [ETZ, ethoxzolamide], the “activity on mitochondrial CA” value (mitochondrial CA) is given as “high activity” and the “ROS formation and cell death induced by high glucose” value [5] is given as “inhibit ROS formation and cell death”.

For “Aβ42: Synthetic homologue of the amyloid subunit Aβ42, used to challenge cells”, the “caspase 9 activation increase compared to control cells” value [6] was “about 1.5 times” and the “caspase 9 activation increase compared to control cells” value (caspase 9 in glial cells) was “about 1.5 times”.

For N#CC(C#N)=NNc1ccc(OC(F)(F)F)cc1 [FCCP, p-trifluoromethoxyphenylhydrazone], the “mitochondrial depolarization after treatment with drugs and peptides” value [7] was “further depolarized” and the “mitochondrial depolarization after treatment with drugs and peptides” value (SH-SY5Y neuronal cells) was “further depolarized”.

In the case of “Aβ40-Q22: Synthetic Aβ40, the Dutch genetic variant, containing the E22Q substitution”, the “increase in steady state ATP levels” value (D3 cells [1]; peptide alone, p=0.001) is reported as 21.6%.
